Tested on: UT7/EPO Cell line
Experiment: Cell proliferation assay in UT7/EPO cell line (ViaLight Plus)
Assay type: cell-based, human
Conditions: compound at 10 uM, efficacy relative to EPO (100%), UT7/EPO cells expressing endogenous EPO receptor, starved of EPO overnight, 72 hours at 37° C.
Method: The primary testing for the exemplified compounds was performed in UT7/EPO Cell line. UT7/EPO is human leukemia cell line, obtained from Dr. Norio Komatsu (Blood, Vol 82 (2), pp 456-464, 1993). These cells express endogenous EPO receptor and are dependant upon EPO for growth and proliferation. Briefly, the cells were starved of EPO overnight and plated in 96 or 384 well plates. The compounds were added to the cells at 10 uM concentration. The plates were then incubated at 37° C. for 72 hours. The proliferative effect of the compounds was measured by a commercially available kit from Lonza (ViaLight Plus).

Row | SMILES | Activity (%) | Activity (%) (10 µM)
1 | CC1=NN(c2ccc3ccccc3n2)C(=O)/C1=N\Nc1ccc(O)cc1 [Compound 108, 4-(4-Hydroxyphenyl)hydrazono-1-(2-quinolino)-3-methyl-5-pyrazolone] | 2.4% | –
2 | COc1ccc2c(c1)cc(C(=O)N/N=C/c1ccc(O)cc1)n2C [Compound 121, (1-Methyl-5-methoxyindole-2-)carboxyl(4-hydroxybenzylidene)hydrazide] | 12% | –
3 | O=C(N/N=C/c1ccccc1O)c1ccc(N2CCCC2=O)cc1 [Compound 123, 4-(2-Oxopyrrolidino-1-)benz(2-hydroxybenzylidene)hydrazide] | 5.1% | –
4 | Cc1cccc(C(=O)N/N=C/c2ccccc2O)c1 [Compound 124, 3-Methylbenz(2-hydroxybenzylidene)hydrazide] | 3.4% | –
5 | O=C(N/N=C/c1ccc2ccccc2c1)c1ccc(-c2ccccc2)cc1 [Compound 125, 4-Phenylbenz(2-naphthylidene)hydrazide] | 15% | –
6 | O=C(N/N=C/c1ccc2ccccc2c1)c1ccc(O)cc1 [Compound 126, 4-Hydroxybenz(2-naphthylidene)hydrazide] | 3.4% | –
7 | CN(C)c1ccc(/C=N/NC(=O)c2ccc(N3CCCC3=O)cc2)cc1 [Compound 127, 4-(2-Oxopyrrolidino-1-)benz(4-dimethylaminobenzylidene)hydrazide] | 6.8% | –
8 | COc1ccc(C(=O)N/N=C/c2cccc(OC)c2)cc1 [Compound 128, 4-Methoxybenz(3-methoxybenzylidene)hydrazide] | 5.6% | –
9 | COc1ccc(O)c(/C=N/NC(=O)c2ccc(N3CCCC3=O)cc2)c1 [Compound 129, 4-(2-Oxopyrrolidino-1-)benz(2-hydroxy-5-methoxybenzylidene)hydrazide] | 23% | –
10 | COc1cc(/C=N/NC(=O)c2ccc(N3CCCC3=O)cc2)ccc1O [Compound 130, 4-(2-Oxopyrrolidino-1-)benz(4-hydroxy-3-methoxybenzylidene)hydrazide] | 20% | –
11 | COc1ccc(/C=N/NC(=O)c2ccc(N3CCCC3=O)cc2)cc1 [Compound 131, 4-(2-Oxopyrrolidino-1-)benz(4-methoxybenzylidene)hydrazide] | 15% | –
12 | COc1ccc(/C=N/NC(=O)c2ccc(N3CCCC3=O)cc2)cc1OC [Compound 132, 4-(2-Oxopyrrolidino-1-)benz(3,4-dimethoxybenzylidene)hydrazide] | 8.7% | –
13 | COc1cccc(/C=N/NC(=O)c2ccc(OCc3ccc(Cl)cc3)cc2)c1 [Compound 133, 4-(4-Chlorobenzyloxy)benz(3-methoxybenzylidene)hydrazide] | 14% | –
14 | COc1cccc(/C=N/NC(=O)c2ccc(OCc3ccc(C)cc3)cc2)c1 [Compound 134, 4-(4-Methylbenzyloxy)benz(3-methoxybenzylidene)hydrazide] | 14% | –
15 | COc1cccc(/C=N/NC(=O)c2ccc(-n3cccc3)cc2)c1 [Compound 135, 4-(1-Pyrrolyl)benz(3-methoxybenzylidene)hydrazide] | 12% | –
16 | COc1cc(/C=N/NC(=O)c2ccc(OCc3ccc(C)cc3)cc2)cc(OC)c1OC [Compound 136, 4-(4-Methylbenzyloxy)benz(3,4,5-trimethoxybenzylidene)hydrazide] | 4.8% | –
17 | COc1ccc(/C=N/NC(=O)c2ccc(OCc3ccc(Cl)cc3)cc2)cc1OC [Compound 137, 4-(4-Chlorobenzyloxy)benz(3,4-dimethoxybenzylidene)hydrazide] | 12% | –
18 | COc1ccc(/C=N/NC(=O)c2ccc(OCc3ccc(C)cc3)cc2)cc1OC [Compound 138, 4-(4-Methylbenzyloxy)benz(3,4-dimethoxybenzylidene)hydrazide] | 18% | –
19 | COc1cccc(/C=N/NC(=O)c2ccc(N(C)C)cc2)c1 [Compound 139, 4-Dimethylaminobenz(3-methoxybenzylidene)hydrazide] | – | 7.8%
20 | COc1cccc(/C=N/NC(=O)c2ccc(-c3ccccc3)cc2)c1 [Compound 140, 4-Phenylbenz(3-methoxybenzylidene)hydrazide] | 14% | –
21 | COc1cc(/C=N/NC(=O)c2ccc(OCc3ccc(Cl)cc3)cc2)ccc1O [Compound 141, 4-(4-Chlorobenzyloxy)benz(4-hydroxy-3-methoxybenzylidene)hydrazide] | 17% | –
22 | COc1cccc(/C=N/NC(=O)c2ccc(OCc3ccc(Br)cc3)cc2)c1 [Compound 142, 4-(4-Bromobenzyloxy)benz(3-methoxybenzylidene)hydrazide] | 6.0% | –
23 | COc1cccc(/C=N/NC(=O)c2ccc(OCc3ccc(F)cc3)cc2)c1 [Compound 143, 4-(4-Fluorobenzyloxy)benz(3-methoxybenzylidene)hydrazide] | 14% | –
24 | COc1cc(/C=N/NC(=O)c2ccc(-c3ccccc3)cc2)ccc1O [Compound 144, 4-Phenylbenz(4-hydroxy-3-methoxybenzylidene)hydrazide] | 15% | –

Row | SMILES | Activity (%) | Activity (%) (10 µM)
25 | CCCCCCCCCCCCCCCCCC(=O)N/N=C/c1cc(OC)ccc1O [Compound 148, Octadecano(2-hydroxy-5-methoxybenzylidene)hydrazide] | 7.1% | –
26 | COc1cccc(/C=N/NC(=O)c2ccc(OCc3ccccc3)cc2)c1 [Compound 149, 4-Benzyloxybenz(3-methoxybenzylidene)hydrazide] | 9.7% | –
27 | COc1cccc(/C=N/NC(=O)c2ccc(-c3cnco3)cc2)c1 [Compound 150, 4-(4-Oxazolyl)benz(3-methoxybenzylidene)hydrazide] | 4.5% | –
28 | COc1ccc(O)c(/C=N/NC(=O)c2ccc(-c3ccccc3)cc2)c1 [Compound 151, 4-Phenylbenz(2-hydroxy-5-methoxybenzylidene)hydrazide] | 6.3% | –
29 | COc1ccc(COc2ccc(C(=O)N/N=C/c3cccc(OC)c3)cc2)cc1 [Compound 152, 4-(4-Methoxybenzyloxy)benz(3-methoxybenzylidene)hydrazide] | 6.9% | –
30 | COc1cccc(/C=N/NC(=O)c2ccc(OCc3cccc(Cl)c3)cc2)c1 [Compound 153, 4-(3-Chlorobenzyloxy)benz(3-methoxybenzylidene)hydrazide] | 5.3% | –
31 | COc1cccc(/C=N/NC(=O)c2ccc(OCc3ccc(C(F)(F)F)cc3)cc2)c1 [Compound 154, 4-(4-Trifluoromethylbenzyloxy)benz(3-methoxybenzylidene)hydrazide] | 6.7% | –
32 | COc1cccc(/C=N/NC(=O)c2ccc(OCc3cccc(OC)c3)cc2)c1 [Compound 155, 4-(3-Methoxybenzyloxy)benz(3-methoxybenzylidene)hydrazide] | 11% | –
33 | C=Cc1ccc(COc2ccc(C(=O)N/N=C/c3cccc(OC)c3)cc2)cc1 [Compound 156, 4-(4-Vinylbenzyloxy)benz(3-methoxybenzylidene)hydrazide] | 7.9% | –
34 | COc1cccc(/C=N/NC(=O)c2ccc(OCc3ccc4ccccc4c3)cc2)c1 [Compound 157, 4-(2-Naphthylmethoxy)benz(3-methoxybenzylidene)hydrazide] | 9.9% | –
35 | COc1cc(/C=N/NC(=O)c2ccc(-c3ccccc3)cc2)ccc1F [Compound 159, 4-Phenylbenz(4-fluoro-3-methoxybenzylidene)hydrazide] | 8.9% | –
36 | COc1cc(/C=N/NC(=O)c2ccc(-c3ccccc3)cc2)cc(OC)c1 [Compound 160, 4-Phenylbenz(3,5-dimethoxybenzylidene)hydrazide] | 6.1% | –
37 | COc1cccc(/C=N/NC(=O)c2ccc(-c3ccccc3F)cc2)c1 [Compound 161, 4-(2-Fluorophenyl)phenylbenz(3-methoxybenzylidene)hydrazide] | 12% | –
38 | O=C(N/N=C/c1ccc2[nH]ccc2c1)c1ccc(-c2ccccc2)cc1 [Compound 163, 4-Phenylbenz(5-indolidene)hydrazide] | 23% | –
39 | C=Cc1cccc(/C=N/NC(=O)c2ccc(-c3ccccc3)cc2)c1 [Compound 164, 4-Phenylbenz(3-vinylbenzylidene)hydrazide] | 11% | –
40 | CC(=O)c1cccc(/C=N/NC(=O)c2ccc(-c3ccccc3)cc2)c1 [Compound 165, 4-Phenylbenz(3-acetylbenzylidene)hydrazide] | 14% | –
41 | C=Cc1cccc(/C=N/NC(=O)c2ccc(N(C)C)cc2)c1 [Compound 167, 4-Dimethylaminobenz(3-vinylbenzylidene)hydrazide] | 11% | –
42 | COc1cccc(/C=N/NC(=O)c2ccc(N(C)C)cc2)c1 [Compound 168, 4-Dimethylaminobenz(3-methoxybenzylidene)hydrazide] | – | 11%
43 | CN(C)c1ccc(C(=O)N/N=C/c2cccc(/C=C/c3ccccc3)c2)cc1 [Compound 170, 4-Dimethylaminobenz(3-(2E-phenylethenyl)benzylidene)hydrazide] | 4.7% | –
44 | CN(C)c1ccc(C(=O)N/N=C/c2cccc(CO)c2)cc1 [Compound 171, 4-Dimethylaminobenz(3-hydroxymethylbenzylidene)hydrazide] | 16% | –
45 | COc1ccc(O)c(/C=N/NC(=O)c2cc3cc(OC)ccc3[nH]2)c1 [Compound 172, 5-Methoxyindole-2-carboxyl(2-hydroxy-5-methoxybenzylidene)hydrazide] | 9.8% | –
46 | COc1ccc(O)c(/C=N/NC(=O)COc2ccc3[nH]ccc3c2)c1 [Compound 173, 5-Indolyloxoacet(2-hydroxy-5-methoxybenzylidene)hydrazide] | 12% | –
47 | COc1ccc(O)c(/C=N/NC(=O)c2cc3cc(O)ccc3o2)c1 [Compound 174, 5-Hydroxybenzofuran-2-carboxyl(2-hydroxy-5-methoxybenzylidene)hydrazide] | 19% | –
